*1 amine or outer side, *2 acyl side, *3 side chain or, on linkers, in order; H or OH if unused. Where a SMILES comes first, the peptide text is derived from it. [ ]: non-standard residue; d: D form. The star is where a group is joined. Dolaproine = CO[C@@H]([C@@H]1CCCN1)[C@@H](C)C(=O)O; X15 = C[C@H](COC(=O)*)SSc1ccc([N+](=O)[O-])cn1; Dil = CC[C@H](C)[C@H](NC)[C@@H](CC(=O)O)OC; PABC = O=C(OCc1ccc(N[*:1])cc1)[*:2]; X2 = C[C@@H](N*)[C@@H](O)c1ccccc1; NMeV = CN[C@H](C(=O)O)C(C)C
Experiments:
[1] = In vitro disulfide cleavage and immolation by incubation with cysteine or glutathione (LC/MS); assay type: physicochemical; settings: for Percentage of all products: pH 7.0, 37° C.
Experimental: In a first phase of the experiment, disulfide cleavage and immolation by incubation with cysteine and glutathione—with the thiol concentrations mimic those in plasma and cancer cells—was investigated using unconjugated small molecule model systems with para-nitro-pyridyl disulfide-containing linker drug analogs 1, 2 and 11 below. In particular, cleavage and immolation was evaluated in vitro by incubation at […] with cysteine ([…] or 200 μM) or glutathione (GSH, 4 mM) in 100 mM Tris buffer pH 7.0 containing 5% methanol at 37° C. Aliquots were taken at specified time points and the samples were analyzed by LC/MS on Sciex TripleTOF 5600 on a Hypersil Gold C18 column (100×2.1, […], Thermo Scientific). The column was eluted by a gradient of buffer A (0.1% formic acid in 10 mM ammonium acetate) to buffer B (0.1% formic acid in 10 mM ammonium acetate in 90% acetonitrile), 5% B 0-0.5 min, 5-25% B 0.5-8 min, 25-75% B 8-13 min, and 75-95% B 13-13.5 min, 95% B 13.5-14.5 min, 95-5% B 14.5-15 min at 0.4 mL/min. Under these conditions, para-nitropyridyl thiol was eluted at 5.3 min. All products (compounds 1, 2, 11, 3a, 3b, 4a, 4b, 12a, 12 b, 6, 7, 13 and 8) were separated and characterized by LC/MS/MS in a positive ESI ion mode. All analytes had the protonated molecular MH^+ as the major species with little source fragmentation. Full scan accurate mass peak areas were used to estimate relative abundance of each component and the disappearance of 1, 2, and 11 estimated relative full scan peak areas was consistent with that estimated based on the relative abundance compared to time 0 by MS or UV. The results are reported in Table 15 below and the analytical results are presented in Table 16 below where “Cmpd” refers to compound, “RT” refers to retention time in minutes, and “Calc. Mass” refers to calculated mass. The relative abundance of disulfide cleavage and immolation products over time were evaluated and are disclosed in FIGS. 12A to 12C, 13A to 13C, 14A to 14C and 15A to 15C where the products were monitored by LC/MS from incubations of linker drugs 1, 2, and 11 at pH 7.0 and 37° C. in the presence of: 0.2 mM cysteine (FIGS. 12A, 12B and 12C); 0.03 mM cysteine (FIGS. 13A, 13B and 13C); 4 mM glutathione (FIGS. 14A, 14B and 14C); and 0.03 mM glutathione (FIGS. 15A, 15B and 15C). In FIGS. 12A to 12C, 13A to 13C, 14A to 14C and 15A to 15C, compound reference numbers 1, 2, 3a, 3b, 4a, 4b, 6, 7, 8, 11, 12a, 12b and 13 correspond to the structures below.

[2] = pKa of thiol compounds
[3] = tested on: calf DNA; test: DNA binding potential (incubation with calf DNA, extraction, LC/MS); settings: 1 mg/mL calf DNA, 37° C., 1 hour
Experimental: For DNA binding analysis, compounds 7 and 8 were incubated at […] with 1 mg/mL calf DNA for 1 hour in 0.5 mL of 10 mM Bis-Tris, pH 7.1 at 37° C. Ethyl acetate (1 mL) was used to extract the reaction mixture twice by vortex (20 seconds) and centrifugation (4 min at 5,000×g). The combined organic extracts were concentrated under vacuum and reconstituted in 0.15 mL of 1:1 water/methanol before injection on LC/MS. The samples were analyzed by LC/MS/UV on Sciex TripleTOF 5600 on a Hypersil Gold C18 column (100×2.1, […], Thermo Scientific) in a positive ESI ion mode. The column was eluted by a gradient of buffer A (0.1% formic acid) to buffer B (0.1% formic acid in acetonitrile), 5% B 0-0.5 min, 5-25% B 0.5-8 min, 25-75% B 8-13 min, and 75-95% B 13-13.5 min, 95% B 13.5-14.5 min, 95-5% B 14.5-15 min at 0.4 mL/min.

[4] = tested on: SK-BR-3 cells; test: In vitro IC50 of MMAE ADCs, Cell Titer-Glo, SK-BR-3; assay type: cell-based; settings: 5 days
Experimental: (§1) The in vitro IC50 of ADC compounds MMAE 1, MMAE 2, MMAE 5 and MMAE 6 against SK-BR-3 and KPL-4 cells was evaluated. The cells were plated in 96-well plates (SK-BR-3 at 5000 cell per well; KPL-4 at 1500 cells […]) in cysteine free RPMI+10% FBS+20 mM glutamine+50 pM cysteine media and allowed to adhere overnight. Media was then removed and was replaced with fresh media containing different ADC concentrations. Cell viability was measured 5 days after drug administration using Cell Titer-Glo.

[5] = tested on: KPL-4 cells; test: In vitro IC50 of MMAE ADCs, Cell Titer-Glo, KPL-4; assay type: cell-based; settings: 5 days
Experimental: as §1

[6] = tested on: target-expressing cell lines; settings: target-expressing cell lines (Hartley 2011); cited from earlier work

Compound | Percentage of all products ([1]; 30 μM cysteine, 1 h) | Percentage of all products ([1]; 30 μM cysteine, 4 h) | Percentage of all products ([1]; 30 μM cysteine, 24 h) | Percentage of all products ([1]; 200 μM cysteine, 1 h) | Percentage of all products ([1]; 200 μM cysteine, 4 h) | Percentage of all products ([1]; 200 μM cysteine, 24 h) | Percentage of all products ([1]; 4 mM GSH, 1 h) | Percentage of all products ([1]; 4 mM GSH, 4 h) | Percentage of all products ([1]; 4 mM GSH, 24 h) | Immolation of thiol intermediate ([1]; incubation with cysteine or glutathione) | pKa [2] | DNA binding [3] | SK-BR-3 IC50 [4] | KPL-4 IC50 [5] | Fraction unextractable after incubation in DNA solution [3] | IC50 [6]
C=C1C[C@H]2C=Nc3cc(OCCCCCOc4cc5c(cc4OC)C(=O)N4CC(=C)C[C@H]4[C@H](O)N5C(=O)OCC4(S)CC4)c(OC)cc3C(=O)N2C1 [Compound 7] | 5.1% | 9.7% | 11.6% | 44.7% | 73.6% | 87.3% | 80.8% | 89.7% | 92.3% | did not appreciably immolate and appeared to be stable | 4.7 to 4.8 | does not bind to DNA | – | – | – | –
CC[C@H](C)[C@@H]([C@@H](CC(=O)N1CCC[C@H]1[C@H](OC)[C@@H](C)C(=O)N[C@H](C)[C@@H](O)c1ccccc1)OC)N(C)C(=O)[C@@H](NC(=O)[C@H](C(C)C)N(C)C(=O)OCc1ccc(NC(=O)OC[C@@H](C)SSc2ccc([N+](=O)[O-])cn2)cc1)C(C)C [MMAE 6] ({X15-PABC}-[NMeV]V[Dil][Dolaproine]-X2) | – | – | – | – | – | – | – | – | – | – | – | – | 0.78 µg/mL | 0.411 µg/mL | – | –
C=C1C[C@H]2C=Nc3cc(OCCCCCOc4cc5c(cc4OC)C(=O)N4CC(=C)C[C@H]4C=N5)c(OC)cc3C(=O)N2C1 [Compound 8] | – | – | – | – | – | – | – | – | – | – | – | quickly binds to DNA | – | – | approximately 94% | ~50 pM
